Assays:
Experiment in all cases: Antibacterial screen at 200 μg/mL (cell density vs control)
Assay type in all cases: cell-based
Conditions in all cases: peptide 200 μg/mL, CAMHB, 5 × 10^5 CFU/mL, 37°C, 12 h, OD600; control (no AMP) = 1; three biological replicates
[1] = tested on: Vibrio alginolyticus xv22
Method: (§1) Eight bacterial strains were utilized in the antibacterial experiment. S. aureus ATCC 12600, B. subtilis ATCC 23857, E. coli ATCC 11775, and A. baumannii ATCC 19606 were purchased from Shanghai Beinuo Biology. M. luteus ATCC 4698 and S. bongori ATCC43975 were purchased from Shanghai Beisi Biotechnology. V. owensii ems001 and V. alginolyticus xv22 from the intestines of diseased shrimps were isolated in our laboratory. All strains were cultured in the cation‐adjusted Mueller‐Hinton broth (CAMHB) at 37°C to the logarithmic growth phase (OD600 = 0.5). Then, bacteria were gradient‐diluted using fresh CAMHB to a bacterial density of 5 × 10^5 CFU/mL. Antibacterial experiments were performed in a 96‐well plate with 200 μg/mL final peptide concentration. Four experimental groups were set up, including a blank control (200 μL CAMHB), a negative control (180 μL CAMHB plus 20 μL peptide), a positive control (180 μL bacterial culture plus 20 μL ultrapure water), and an experimental group (180 μL bacterial culture plus 20 μL peptide). Three biological replicates were conducted for each group, and OD600 values were measured after incubation at 37°C for 12 h. Every observed value was removed from the blank control group value. The value of the experimental group was then subtracted from the value of the negative control group therefore eradicating the effect of the peptide on the OD measurement. Student's t‐test allowed the estimation of a notable variation between the experimental and positive groups using a p‐value of 0.05 as the limit. […] The MIC of a peptide against a bacterium was determined as the minimum peptide concentration at which there was no visible bacterial growth.

[2] = tested on: Bacillus subtilis ATCC 23857
Method: as §1

[3] = tested on: Escherichia coli ATCC 11775
Method: as §1

[4] = tested on: Acinetobacter baumannii ATCC 19606
Method: as §1

Vibrio owensii ems001 = tested on: Vibrio owensii ems001
Method: as §1

[5] = tested on: Salmonella bongori ATCC 43975
Method: as §1

[6] = tested on: Micrococcus luteus ATCC 4698
Method: as §1

[7] = tested on: Staphylococcus aureus ATCC 12600
Method: as §1

| Sequence | cell density relative to control, V. alginolyticus xv22 [1] | cell density relative to control, B. subtilis ATCC 23857 [2] | cell density relative to control, E. coli ATCC 11775 [3] | cell density relative to control, A. baumannii ATCC 19606 [4] | cell density relative to control, V. owensii ems001 (Vibrio owensii ems001) | cell density relative to control, S. bongori ATCC 43975 [5] | cell density relative to control, M. luteus ATCC 4698 [6] | cell density relative to control, S. aureus ATCC 12600 [7] |
| --- | --- | --- | --- | --- | --- | --- | --- | --- |
| MWAVARGRR [Cand-195, chemically synthesized candidate AMP predicted from marine biofilm bacteria] | 1 | 0.676 | 1 | 1 | 0.958 | 1 | 0.987 | 0.945 |
| MFSKLVKVLLKALCHVFMKCTFW [Cand-61, chemically synthesized candidate AMP predicted from marine biofilm bacteria] | 1 | 0 | 1 | 0.884 | 0.001 | 0.633 | 1 | 0 |
| MAWISTRIACCCSTRLRRRIRTCSTSFCR [Cand-218, chemically synthesized candidate AMP predicted from marine biofilm bacteria] | 0.049 | 0.004 | 0.021 | 0.029 | 0.001 | 0.938 | 0.052 | 0 |
| MVKLLKKMVSLYH [Cand-122, chemically synthesized candidate AMP predicted from marine biofilm bacteria] | 1 | 0.002 | 0.642 | 0.907 | 0.188 | 0.455 | 0.728 | 0 |
| MCRFKCKVRTTITRPVCCWLIFM [Cand-168, chemically synthesized candidate AMP predicted from marine biofilm bacteria] | 0.418 | 0 | 0.553 | 1 | 0 | 0.482 | 1 | 1 |
| MLRRIGRMWRKLHPHGQ [Cand-10, chemically synthesized candidate AMP predicted from marine biofilm bacteria] | 0.001 | 0.032 | 0.001 | 0.009 | 0.041 | 0.009 | 0.001 | 0.007 |
| MRPRLRKRLLR [Cand-187, chemically synthesized candidate AMP predicted from marine biofilm bacteria] | 0.84 | 0.002 | 0.674 | 0.766 | 1 | 0.256 | 0.703 | 0.68 |
| MWTIYSGIKRSLHYCRRRGYYCSRYGYYS [Cand-43, chemically synthesized candidate AMP predicted from marine biofilm bacteria] | 0.124 | 0.67 | 0 | 0.385 | 0.215 | 0 | 0.297 | 0.031 |
| MCRWWPDWWHHRWWHCRGCCRFCRG [Cand-111, chemically synthesized candidate AMP predicted from marine biofilm bacteria] | 0.477 | 1 | 0.669 | 1 | 0.357 | 0.794 | 1 | 0.202 |
| MGRISCMWSSSYKCRFNCYF [Cand-20, chemically synthesized candidate AMP predicted from marine biofilm bacteria] | 0.635 | 1 | 1 | 0.937 | 0.818 | 1 | 1 | 0.809 |
| MRPCMCRIGGRL [Cand-19, chemically synthesized candidate AMP predicted from marine biofilm bacteria] | 1 | 1 | 1 | 1 | 1 | 0.929 | 1 | 1 |
| MPKVKTKVCHRR [Cand-26, chemically synthesized candidate AMP predicted from marine biofilm bacteria] | 0 | 0.676 | 1 | 0.88 | 0.917 | 0.862 | 1 | 0.897 |
| MRVGMCRIGGRL [Cand-79, chemically synthesized candidate AMP predicted from marine biofilm bacteria] | 0.8 | 0.837 | 0.73 | 0.975 | 1 | 0.975 | 1 | 0.728 |
| MCTRSCRPNLVKC [Cand-47, chemically synthesized candidate AMP predicted from marine biofilm bacteria] | 1 | 1 | 1 | 0.895 | 1 | 0.835 | 1 | 1 |
| MSCDLQKVRGCLPRLIVHK [Cand-142, chemically synthesized candidate AMP predicted from marine biofilm bacteria] | 1 | 1 | 1 | 1 | 1 | 0.989 | 1 | 0.941 |

Reference: publication PMC11683478, “Bioprospecting of culturable marine biofilm bacteria for novel antimicrobial peptides” (iMeta, 2024)
